We go through 3 compounds from US12606518B2, “Crystalline form of L-serine and process of preparing same” (ASTROGEN, INC., priority 2024, dated 2026).

For orientation: Cmax means the highest concentration seen after dosing. One may read the MRT inf as a mean duration of stay, worked out from the concentration-time curve. Usually Tmax stands for the time at which the peak concentration occurs. The half-life is the time in which the quantity being followed falls by half.

A short description of data set [1]: Hygroscopicity test by dynamic vapor absorption (DVS). As to conditions: 25° C., 2-98% relative humidity.
Data set [2] in a line: Thermal stability test (storage at 40° C./75% RH for 8 weeks; HPLC content, visual discoloration, XRD). As to conditions: for L-serine content from 0 week: before storage at 40° C./75% RH; for L-serine content from 0 week / L-serine content after 8 weeks: HPLC; for L-serine content after 8 weeks / Change in Crystal / Discoloration: after 8 weeks at 40° C./75% RH; for Change in Crystal: XRD; for Discoloration: visual. The class given is physicochemical. The method, then:
After 8 weeks, each sample was taken out and the content was analyzed using high-performance liquid chromatography (HPLC), and the presence of discoloration was visually confirmed as shown in FIG. 13. High-Performance Liquid Chromatography Conditions • Equipment: Waters Alliance e2695 • Column: […] 100, 150 mm×4.6 mm×5 μm • Column temperature: 30° C. • Flow rate: 1.0 mL/min • Detection: 210 nm, UV • Injection volume: 10 μL • Total analysis time: 40 mins • Mobile phase: […]

Data set [3] is described as follows: Pharmacokinetic comparison after single oral administration. As to conditions: 400 mg/kg oral once.
Data set [4] can be described thus: Saturated solubility in purified water. To be noted: on first addition of purified water. The format is physicochemical. Here is the method:
Then, 5 mL (or 10 mL) of this solution is taken, and placed into a 50 mL volumetric flask, purified water is filled to the mark and used as a test solution. • f. The test solution is analyzed according to HPLC operating conditions for the test of L-serine content.
b. The resulting solution is left at room temperature for 5 minutes and then vigorously mixed using a vortexer for 30 seconds.
c. The process b is repeated 6 times (about 30 minutes) and then the resultant is left at room temperature until the floating materials are settled.
d. The supernatant of the solution is placed into a 2.0 mL eppendorf tube and is subject to perform centrifugation using a centrifuge at 23° C. and 4,000 rpm for 20 minutes.
e. 1 mL of the supernatant of the solution is taken and placed into a 100 mL volumetric flask, and purified water is filled to the mark. Then, 5 mL (or 10 mL) of this solution is taken and placed into a 50 mL volumetric flask, purified water is filled to the mark, and used as a test solution.
f. The test solution is analyzed according to HPLC operating conditions for the test of L-serine content.

Setting [5] is: mice, n=5, after baseline correction, 400 mg/kg.

For the compound `N[C@@H](CO)C(=O)O` [Comparative Example 1, L-serine], the “relative humidity at which moisture absorption started” value (“relative humidity” for short) in data set [1] is 40%. In data set [2], the “L-serine content from 0 week” value is 99.0% →, the “L-serine content after 8 weeks” value was 90.4%, the “Change in Crystal” value was “change in part” and the Discoloration result was “change to off-”. For the same compound, in data set [3] (setting [5]), the AUC0-12 turned out to be 100.53 ± 20.15 µg·h/mL, the AUC0-inf was found to be 121.45 ± 17.20 µg·h/mL and the CI/F was 3.35 ± 0.43 (mg/kg)/(μg/mL)/h. Also, the Cmax in data set [3] (mouse, blood, po, 400 mg/kg, Cmax, mice, n=5, after baseline correction) was found to be 67.5 ± 25.9 µg/mL. This compound returned an MRT inf in data set [3] (mouse, blood, po, 400 mg/kg, MRT0-inf, mice, n=5, after baseline correction) of 5.11 ± 0.8 h. The time of peak concentration (Tmax) in data set [3] (mouse, blood, po, 400 mg/kg, Tmax, mice, n=5, after baseline correction) came out at 0.25 h. The half-life in data set [3] (mouse, blood, po, 400 mg/kg, t1/2, mice, n=5, after baseline correction) is 4.15 ± 0.99 h.
For the compound `N[C@@H](CO)C(=O)O` [Example 3, L-serine], in data set [1], the “relative humidity” value is given as “around 80%”. The “Remark (hardening phenomenon during dissolution)” value in data set [4] is given as “The procedure went smoothly”. In data set [2], the “L-serine content from 0 week” value is 99.3% →, the “L-serine content after 8 weeks” value worked out at 99.2%, the “Change in Crystal” value was “retained” and the Discoloration result is “no change”. For the same compound, in data set [3] (mice), the “difference in maximum blood concentration (Cmax) compared to amorphous form and type A crystalline form” value is “no significant difference”; the “increase of AUC0-12 compared to amorphous form and type A crystalline form of L-serine” value is listed as at least 2 times. Besides, in data set [3] (setting [5]), the AUC0-12 amounted to 248.89 ± 37.34 µg·h/mL, the AUC0-inf is 296.22 ± 69.63 µg·h/mL, the CI/F is given as 2.11 ± 0.49 (mg/kg)/(μg/mL)/h and the Cmax amounted to 75.48 ± 10.70 µg/mL. Further, in data set [3] (setting [5]), the MRT0-inf was determined as 5.29 ± 2.10 h, the Tmax worked out at 0.50 h and the t1/2 came to 3.56 ± 1.36 h.
Take `N[C@@H](CO)C(=O)O` [Comparative Example 2, L-serine]: in data set [1], the “relative humidity” value is on record as “around 70%”. For the same compound, in data set [2], the “L-serine content from 0 week” value is given as 99.1% →, the “L-serine content after 8 weeks” value is 93.7%, the “Change in Crystal” value is recorded as “retained” and the Discoloration result is on record as “change to off-”. Also, in data set [3] (setting [5]), the AUC0-12 stood at 165.81 ± 40.99 µg·h/mL, the AUC0-inf is 177.36 ± 39.9 µg·h/mL, the CI/F is reported as 3.19 ± 0.67 (mg/kg)/(μg/mL)/h and the Cmax is 77.69 ± 8.49 µg/mL. Moreover, in data set [3] (setting [5]), the MRT0-inf is 3.44 ± 1.49 h, the Tmax is listed as 0.50 h and the t1/2 turned out to be 2.56 ± 0.76 h.
